In patent US9521846B2, “Template-fixed peptidomimetics with antimicrobial activity” (priority 2006, dated 2016):
Values after ≈ are worked out from the molar mass of the structure shown. Non-standard residues stand in square brackets, D forms with d. Residues, ends and D or L forms follow the SMILES beside them. Cha = N[C@@H](CC1CCCCC1)C(=O)O; Tle = CC(C)(C)[C@H](N)C(=O)O; dDab = NCC[C@@H](N)C(=O)O; Nle = CCCC[C@H](N)C(=O)O; Dab = NCC[C@H](N)C(=O)O

Assays:
HELA cells (Acc57) = assay: Cytotoxicity assay, MTT reduction (LC 50, GI 50); assay type: cell-based
Method: The cytotoxicity of the peptides to HELA cells (Acc57) and COS-7 cells (CRL-1651) was determined using the MIT reduction assay [see ref. 2 and 3, below]. Briefly the method was as follows: HELA cells and COS-7 cells were seeded at 7.0×10^3 and, respectively, 4.5×10^3 cells per well and grown in 96-well […] plates for 24 hours at 37° C. at 5% CO2. At this point, time zero (Tz) was determined by MTT reduction (see below). The supernatant of the remaining wells was discarded, and fresh medium and the peptides in serial dilutions of 12.5, 25 and 50 μM were dispensed into the wells. Each peptide concentration was assayed in triplicate. Incubation of the cells was continued for 48 hours at 37° C. at 5% CO2. Wells were then washed once with phosphate buffered saline (PBS) and subsequently 100 μl MIT reagent (0.5 mg/ml in medium RPMI1640 and, respectively, DMEM) were added to the wells. This was incubated at 37° C. for 2 hours and subsequently the medium was aspirated and 100 μl isopropanol were added to each well. The absorbance at 595 nm of the solubilized product was measured (OD595peptide). For each concentration averages were calculated from triplicates. The percentage of growth was calculated as follows: (OD595peptide-OD595Tz-OD595Empty well)/(OD595Tz-OD595Empty well)×100% and was plotted for each peptide concentration.
The LC 50 values (Lethal Concentration, defined as the concentration that kills 50% of the cells) were determined for each peptide by using the trend line function of EXCEL (Microsoft Office 2000) for the concentrations (50, 25, 12.5 and 0 μM), the corresponding growth percentages and the value −50, (=TREND(C50:C0,%50:%0,−50)). The GI 50 (Growth Inhibition) concentrations were calculated for each peptide by using a trend line function for the concentrations (50, 25, 12.5 and 0 […]), the corresponding percentages and the value 50, (=TREND (C50:C0,%50:%0,50).

[1] = system: Pseudomonas aeruginosa IMP 1 Livermore 3140; assay type: cell-based; conditions: IMP 1 Livermore 3140
Method: (§1) The selective antimicrobial activities of the peptides were determined in 96-well plates (Nunclon polystyrene) by the standard NCCLS broth microdilution method (see ref 1, below) with slight modifications. Innocula of the microorganisms were diluted into Mueller-Hinton (MH) broth+0.02% BSA and compared with a 0.5 Mcfarland standard to give appr. 10^6 colony forming units (CFU)/ml. Aliquots (50 μl) of inoculate were added to 50 μl of MH broth+0.02% BSA containing the peptide in serial two-fold dilutions. The following microorganisms were used to determine antibiotic selectivity of the peptides: Escherichia coli (ATCC 25922), Pseudomonas aeruginosa (P. aeruginosa ATCC 27853, P8191900, P1021903, P1021913, IMP 1 Livermore 3140).

[2] = system: Pseudomonas aeruginosa P8191900; assay type: cell-based; conditions: P8191900
Method: as §1

[3] = system: Pseudomonas aeruginosa P1021903; assay type: cell-based; conditions: P1021903
Method: as §1

[4] = system: Pseudomonas aeruginosa P1021913; assay type: cell-based; conditions: P1021913
Method: as §1

[5] = system: human red blood cells (hRBC); assay: Hemolysis; assay type: cell-based; conditions: 100
Method: Hemolysis of red blood cells is often employed for assessment of toxicity of related compounds such as protegrin or tachyplesin. Values are given as %-lysis of red blood cells observed at a concentration of 100 μg/ml. Typical values determined for cationic peptides such as protegrin and tachyplesin range between 30-40% with average MIC-values of 1-5 μg/ml over a wide range of pathogens.
The peptides were tested for their hemolytic activity against human red blood cells (hRBC). Fresh hRBC were washed three times with phosphate buffered saline (PBS) by centrifugation for 10 min at 2000×g. Peptides at a concentration of 100 μM were incubated with 20% v/v hRBC for 1 hour at 37° C. The final erythrocyte concentration was approximately 0.9×10^9 cells per ml. A value of 0% and, respectively, 100% cell lysis was determined by incubation of the hRBC in the presence of PBS alone and, respectively, 0.1% Triton X-100 in H2O. The samples were centrifuged, the supernatant was 20-fold diluted in PBS buffer and the optical density (OD) of the sample at […] was measured. The 100% lysis value (OD540H20) gave an OD540 of approximately 1.3-1.8. Percent hemolysis was calculated as follows: (OD540peptide/OD540H20)×100%.

P. aeruginosa ATCC 27853 = assay type: cell-based, Pseudomonas aeruginosa; conditions: ATCC 27853
Method: as §1

Compound	Average MIC (P. aeruginosa)	Cytotoxicity GI50 Hela cells (HELA cells (Acc57))	MIC P. aeruginosa IMP1 Livermore 3140 [1]	MIC P. aeruginosa P8191900 [2]	MIC P. aeruginosa P1021903 [3]	MIC P. aeruginosa P1021913 [4]	Hemolysis at 100 μg/ml [5]	MIC P. aeruginosa ATCC 27853 (P. aeruginosa ATCC 27853)
CC[C@H](C)[C@@H]1NC(=O)[C@H](Cc2c[nH]c3ccccc23)NC(=O)[C@H]([C@@H](C)O)NC(=O)[C@@H]2CCCN2C(=O)[C@H]2CCCN2C(=O)[C@H](CCN)NC(=O)[C@@H](C(C)C)NC(=O)[C@H](CCN)NC(=O)[C@H](CCN)NC(=O)[C@H](Cc2c[nH]c3ccccc23)NC(=O)[C@H](CCN)NC(=O)[C@H](CCN)NC(=O)[C@H](CCCCN)NC(=O)[C@H](CCN)NC1=O [Example 4] (cyclo(TWI[Dab]K[Dab][Dab]W[Dab][Dab][dV][Dab][dP]P))	>1 mg/L	40 µM	>2.0 mg/L	1.50 mg/L (≈ 0.932 µM)	1.50 mg/L (≈ 0.932 µM)	2.50 mg/L (≈ 1.55 µM)	0.6%	0.75 mg/L (≈ 0.466 µM)
CC[C@H](C)[C@@H]1NC(=O)[C@H](Cc2c[nH]c3ccccc23)NC(=O)[C@H]([C@@H](C)O)NC(=O)[C@@H]2CCCN2C(=O)[C@H]2CCCN2C(=O)[C@H](CCN)NC(=O)[C@H](CCC(=O)O)NC(=O)[C@H](CCN)NC(=O)[C@H](CCN)NC(=O)[C@H](Cc2c[nH]c3ccccc23)NC(=O)[C@H](CCN)NC(=O)[C@H](CCN)NC(=O)[C@H](CCCCN)NC(=O)[C@H](CCN)NC1=O [Example 15] (cyclo(TWI[Dab]K[Dab][Dab]W[Dab][Dab]E[Dab][dP]P))	>1 mg/L	50 µM	>2 mg/L	2.50 mg/L (≈ 1.53 µM)	1.25 mg/L (≈ 0.763 µM)	2.25 mg/L (≈ 1.37 µM)	0.3%	0.50 mg/L (≈ 0.305 µM)
CCCC[C@@H]1NC(=O)[C@H](CCN)NC(=O)[C@H](CCN)NC(=O)[C@H](Cc2c[nH]c3ccccc23)NC(=O)[C@H](CCN)NC(=O)[C@H](CCN)NC(=O)[C@H](CCCCN)NC(=O)[C@H](CCN)NC(=O)[C@H]([C@@H](C)CC)NC(=O)[C@H](Cc2c[nH]c3ccccc23)NC(=O)[C@H]([C@@H](C)O)NC(=O)[C@@H]2CCCN2C(=O)[C@H]2CCCN2C(=O)[C@H](CCN)NC1=O [Example 9] (cyclo(TWI[Dab]K[Dab][Dab]W[Dab][Dab][Nle][Dab][dP]P))	>1 mg/L	50 µM	>2 mg/L	0.75 mg/L (≈ 0.462 µM)	1.50 mg/L (≈ 0.924 µM)	0.75 mg/L (≈ 0.462 µM)	0.7%	0.21 mg/L (≈ 0.129 µM)
CC[C@H](C)[C@@H]1NC(=O)[C@H](Cc2c[nH]c3ccccc23)NC(=O)[C@H]([C@@H](C)O)NC(=O)[C@@H]2CCCN2C(=O)[C@H]2CCCN2C(=O)[C@H](CCN)NC(=O)[C@H](C)NC(=O)[C@H](CCN)NC(=O)[C@H](CCCCN)NC(=O)[C@H](Cc2c[nH]c3ccccc23)NC(=O)[C@H](CCN)NC(=O)[C@H](CCN)NC(=O)[C@H](CCCCN)NC(=O)[C@H](CCN)NC1=O [Example 27] (cyclo(TWI[Dab]K[Dab][Dab]WK[Dab]A[Dab][dP]P))	0.28 mg/L	50 µM	0.50 mg/L (≈ 0.311 µM)	0.30 mg/L (≈ 0.186 µM)	0.30 mg/L (≈ 0.186 µM)	0.21 mg/L (≈ 0.131 µM)	0.6%	0.09 mg/L (≈ 0.0559 µM)
CC[C@H](C)[C@@H]1NC(=O)[C@H](Cc2c[nH]c3ccccc23)NC(=O)[C@H]([C@@H](C)O)NC(=O)[C@@H]2CCCN2C(=O)[C@H]2CCCN2C(=O)[C@H](CCN)NC(=O)[C@H](CC2CCCCC2)NC(=O)[C@H](CCN)NC(=O)[C@H](CCN)NC(=O)[C@H](Cc2c[nH]c3ccccc23)NC(=O)[C@H](CCN)NC(=O)[C@H](CCN)NC(=O)[C@H](CCCCN)NC(=O)[C@H](CCN)NC1=O [Example 12] (cyclo(TWI[Dab]K[Dab][Dab]W[Dab][Dab][Cha][Dab][dP]P))	>1 mg/L	50 µM	>2 mg/L	1.00 mg/L (≈ 0.601 µM)	2.00 mg/L (≈ 1.2 µM)	0.75 mg/L (≈ 0.451 µM)	0.7%	0.40 mg/L (≈ 0.241 µM)
CC[C@H](C)[C@@H]1NC(=O)[C@H](Cc2c[nH]c3ccccc23)NC(=O)[C@H]([C@@H](C)O)NC(=O)[C@@H]2CCCN2C(=O)[C@H]2CCCN2C(=O)[C@H](CCN)NC(=O)[C@H](C(C)(C)C)NC(=O)[C@H](CCN)NC(=O)[C@H](CCN)NC(=O)[C@H](Cc2c[nH]c3ccccc23)NC(=O)[C@H](CCN)NC(=O)[C@H](CCN)NC(=O)[C@H](CCCCN)NC(=O)[C@H](CCN)NC1=O [Example 36] (cyclo(TWI[Dab]K[Dab][Dab]W[Dab][Dab][Tle][Dab][dP]P))	0.22 mg/L	50 µM	0.43 mg/L (≈ 0.265 µM)	0.18 mg/L (≈ 0.111 µM)	0.18 mg/L (≈ 0.111 µM)	0.24 mg/L (≈ 0.148 µM)	0.1%	0.06 mg/L (≈ 0.037 µM)
CC[C@H](C)[C@@H]1NC(=O)[C@H](Cc2c[nH]c3ccccc23)NC(=O)[C@H]([C@@H](C)O)NC(=O)[C@@H]2CCCN2C(=O)[C@H]2CCCN2C(=O)[C@H](CCN)NC(=O)[C@H](C)NC(=O)[C@H](CCN)NC(=O)[C@H](CCN)NC(=O)[C@H](Cc2c[nH]c3ccccc23)NC(=O)[C@H](CCN)NC(=O)[C@@H](CCN)NC(=O)[C@H](CCCCN)NC(=O)[C@H](CCN)NC1=O [Example 41] (cyclo(TWI[Dab]K[dDab][Dab]W[Dab][Dab]A[Dab][dP]P))	0.12 mg/L	50 µM	0.25 mg/L (≈ 0.158 µM)	0.05 mg/L (≈ 0.0316 µM)	0.03 mg/L (≈ 0.019 µM)	0.25 mg/L (≈ 0.158 µM)	0.2%	0.02 mg/L (≈ 0.0127 µM)
CC[C@H](C)[C@@H]1NC(=O)[C@H](Cc2c[nH]c3ccccc23)NC(=O)[C@H]([C@@H](C)O)NC(=O)[C@@H]2CCCN2C(=O)[C@H]2CCCN2C(=O)[C@H](CCN)NC(=O)[C@H](C)NC(=O)[C@H](CCN)NC(=O)[C@H](CCN)NC(=O)[C@H](Cc2c[nH]c3ccccc23)NC(=O)[C@H](Cc2c[nH]cn2)NC(=O)[C@H](CCN)NC(=O)[C@H](CCCCN)NC(=O)[C@H](CCN)NC1=O [Example 21] (cyclo(TWI[Dab]K[Dab]HW[Dab][Dab]A[Dab][dP]P))	0.40 mg/L	50 µM	1.00 mg/L (≈ 0.618 µM)	0.40 mg/L (≈ 0.247 µM)	0.21 mg/L (≈ 0.13 µM)	0.31 mg/L (≈ 0.192 µM)	0.4%	0.09 mg/L (≈ 0.0556 µM)
